Counter-ions that a name gives are not always drawn.
How the values were obtained:
Type in all cases: cell-based
[1] = molecular target: T1, Nav1.5 (Homo sapiens, UniProt Q14524); experiment: hNav1.5 Sodium Channel Assay (peak), Qube APC; conditions: Antagonist mode; HEK-Nav1.5 (Peak); test compound
T1 construct: host or cells: HEK-293
Experimental: (§1) Where presented, IC50 values were determined by a non-linear, least squares regression analysis.
(§2) Recombinant HEK-293 cells stably transfected with human NavL.5 cDNA, recombinant HEK293 cell line expressing the human Cavl.2 (L-type voltage gated calcium channel, hCavl.2 alC/02a/a281, and recombinant CHO-K1 cells stably transfected with human hERG cDNA were used separately in each of these assays.
(§3) Ion Channels tested were Eurofins Panel Part Number: CPROFullQB2DR Voltage-Gated Sodium: HEK-Nav1.5 (Peak), HEK-Nav1.5 (Late, Antagonist) Voltage-Gated Potassium: HEK-Kv4.3/KChIP2, CHO-hERG, CHO-KCNQ1/minK Voltage-Gated Calcium: HEK-Cav1.2 Inward-Rectifying Voltage-Gated Potassium: HEK-Kir2.1.
(§4) Methods employed in this study have been developed and validated with reliability and reproducibility by Eurofins. Assays were performed under conditions below. […] Peak current is measured during the step to −15 mV. […] Onset and steady state block of hKv4.3 current is measured using a pulse pattern from −80 mV to 40 mV amplitude for a 110 ms duration, and finally a 100 ms ramp (1.2 V/s) to −80 mV. This paradigm is delivered once every 5s to monitor the current amplitude. […] Cavl.2 currents are evoked by a 50 ms pulse to −100 mV followed by a 200 ms pulse to +20 mV before returning to the holding potential of −90 mV. This paradigm is delivered three times every 60s to monitor the current amplitude. [0220] hNav1.5 Late Current Sodium Channel Assay—Qube APC Onset and steady state block of Late Nay1.5 current is measured using a pulse pattern, repeated every 5 sec, consisting of a hyperpolarizing pulse to −120 mV for a 200 ms duration, depolarization to −15 mV amplitude for a 40 ms duration, followed by step to 40 mV for 200 ms and finally a 100 ms ramp (1.2 V/s) to a holding potential of −80 mV. Late current is measured as charge current elicited during the ramp with 50 nM ATXII.

[2] = molecular target: T2, Nav1.5 Late Current (Homo sapiens, UniProt Q14524); experiment: hNav1.5 Late Current Sodium Channel Assay, Qube APC; conditions: Antagonist mode; HEK-Nav1.5 (Late), 50 nM ATXII; test compound
T2 construct: host or cells: HEK-293
Experimental: Electrophysiological assays were conducted to profile three compounds ((R)-methylone, (S)-methylone, or racemic methylone) for activities on the ion channel targets specified below using the Qube electrophysiological platform. Where presented, IC50 values were determined by a non-linear, least squares regression analysis. Reference standards were run as an integral part of each assay to ensure the validity of the results obtained.
as §3
Methods employed in this study have been developed and validated with reliability and reproducibility by Eurofins. Assays were performed under conditions below. [0217] hNavL.5 Sodium Channel Assay—Qube APC Onset and steady state block of peak Nay1.5 current is measured using a pulse pattern, repeated every 5 sec, consisting of a hyperpolarizing pulse to −120 mV for a 200 ms duration, depolarization to −15 mV amplitude for a 40 ms duration, followed by step to 40 mV for 200 ms and finally a 100 ms ramp (1.2 V/s) to a holding potential of −80 mV. Peak current is measured during the step to −15 mV. […] Onset and steady state block of hKv4.3 current is measured using a pulse pattern from −80 mV to 40 mV amplitude for a 110 ms duration, and finally a 100 ms ramp (1.2 V/s) to −80 mV. […] [0220] hNav1.5 Late Current Sodium Channel Assay—Qube APC Onset and steady state block of Late Nay1.5 current is measured using a pulse pattern, repeated every 5 sec, consisting of a hyperpolarizing pulse to −120 mV for a 200 ms duration, depolarization to −15 mV amplitude for a 40 ms duration, followed by step to 40 mV for 200 ms and finally a 100 ms ramp (1.2 V/s) to a holding potential of −80 mV. Late current is measured as charge current elicited during the ramp with 50 nM ATXII.

[3] = molecular target: T3, hERG (Homo sapiens, UniProt Q12809); experiment: hERG Potassium Channel Assay, Qube APC; conditions: Antagonist mode; CHO-hERG; test compound
T3 construct: host or cells: CHO-K1
Experimental: as §1, §2, §3
hERG Potassium Channel Assay—Qube APC After whole cell configuration is achieved, the cells are held at −80 mV. Cells are held at this voltage for 50 ms to measure the leak current, which is subtracted from the tail current on-line. The cells are depolarized to +40 mV for 500 ms and then to −80 mV over a 100 ms ramp to elicit the hERG tail current. This paradigm is delivered once every 8s to monitor the current amplitude.

[4] = molecular target: T4, Cav1.2 (Homo sapiens, UniProt Q13936); experiment: hCav1.2 (L-type) Calcium Channel Assay, Qube APC; conditions: Antagonist mode; HEK-Cav1.2; test compound
T4 construct: host or cells: HEK293
Experimental: as §1, §2, §3, §4

T4 sequence (Q13936 whole entry): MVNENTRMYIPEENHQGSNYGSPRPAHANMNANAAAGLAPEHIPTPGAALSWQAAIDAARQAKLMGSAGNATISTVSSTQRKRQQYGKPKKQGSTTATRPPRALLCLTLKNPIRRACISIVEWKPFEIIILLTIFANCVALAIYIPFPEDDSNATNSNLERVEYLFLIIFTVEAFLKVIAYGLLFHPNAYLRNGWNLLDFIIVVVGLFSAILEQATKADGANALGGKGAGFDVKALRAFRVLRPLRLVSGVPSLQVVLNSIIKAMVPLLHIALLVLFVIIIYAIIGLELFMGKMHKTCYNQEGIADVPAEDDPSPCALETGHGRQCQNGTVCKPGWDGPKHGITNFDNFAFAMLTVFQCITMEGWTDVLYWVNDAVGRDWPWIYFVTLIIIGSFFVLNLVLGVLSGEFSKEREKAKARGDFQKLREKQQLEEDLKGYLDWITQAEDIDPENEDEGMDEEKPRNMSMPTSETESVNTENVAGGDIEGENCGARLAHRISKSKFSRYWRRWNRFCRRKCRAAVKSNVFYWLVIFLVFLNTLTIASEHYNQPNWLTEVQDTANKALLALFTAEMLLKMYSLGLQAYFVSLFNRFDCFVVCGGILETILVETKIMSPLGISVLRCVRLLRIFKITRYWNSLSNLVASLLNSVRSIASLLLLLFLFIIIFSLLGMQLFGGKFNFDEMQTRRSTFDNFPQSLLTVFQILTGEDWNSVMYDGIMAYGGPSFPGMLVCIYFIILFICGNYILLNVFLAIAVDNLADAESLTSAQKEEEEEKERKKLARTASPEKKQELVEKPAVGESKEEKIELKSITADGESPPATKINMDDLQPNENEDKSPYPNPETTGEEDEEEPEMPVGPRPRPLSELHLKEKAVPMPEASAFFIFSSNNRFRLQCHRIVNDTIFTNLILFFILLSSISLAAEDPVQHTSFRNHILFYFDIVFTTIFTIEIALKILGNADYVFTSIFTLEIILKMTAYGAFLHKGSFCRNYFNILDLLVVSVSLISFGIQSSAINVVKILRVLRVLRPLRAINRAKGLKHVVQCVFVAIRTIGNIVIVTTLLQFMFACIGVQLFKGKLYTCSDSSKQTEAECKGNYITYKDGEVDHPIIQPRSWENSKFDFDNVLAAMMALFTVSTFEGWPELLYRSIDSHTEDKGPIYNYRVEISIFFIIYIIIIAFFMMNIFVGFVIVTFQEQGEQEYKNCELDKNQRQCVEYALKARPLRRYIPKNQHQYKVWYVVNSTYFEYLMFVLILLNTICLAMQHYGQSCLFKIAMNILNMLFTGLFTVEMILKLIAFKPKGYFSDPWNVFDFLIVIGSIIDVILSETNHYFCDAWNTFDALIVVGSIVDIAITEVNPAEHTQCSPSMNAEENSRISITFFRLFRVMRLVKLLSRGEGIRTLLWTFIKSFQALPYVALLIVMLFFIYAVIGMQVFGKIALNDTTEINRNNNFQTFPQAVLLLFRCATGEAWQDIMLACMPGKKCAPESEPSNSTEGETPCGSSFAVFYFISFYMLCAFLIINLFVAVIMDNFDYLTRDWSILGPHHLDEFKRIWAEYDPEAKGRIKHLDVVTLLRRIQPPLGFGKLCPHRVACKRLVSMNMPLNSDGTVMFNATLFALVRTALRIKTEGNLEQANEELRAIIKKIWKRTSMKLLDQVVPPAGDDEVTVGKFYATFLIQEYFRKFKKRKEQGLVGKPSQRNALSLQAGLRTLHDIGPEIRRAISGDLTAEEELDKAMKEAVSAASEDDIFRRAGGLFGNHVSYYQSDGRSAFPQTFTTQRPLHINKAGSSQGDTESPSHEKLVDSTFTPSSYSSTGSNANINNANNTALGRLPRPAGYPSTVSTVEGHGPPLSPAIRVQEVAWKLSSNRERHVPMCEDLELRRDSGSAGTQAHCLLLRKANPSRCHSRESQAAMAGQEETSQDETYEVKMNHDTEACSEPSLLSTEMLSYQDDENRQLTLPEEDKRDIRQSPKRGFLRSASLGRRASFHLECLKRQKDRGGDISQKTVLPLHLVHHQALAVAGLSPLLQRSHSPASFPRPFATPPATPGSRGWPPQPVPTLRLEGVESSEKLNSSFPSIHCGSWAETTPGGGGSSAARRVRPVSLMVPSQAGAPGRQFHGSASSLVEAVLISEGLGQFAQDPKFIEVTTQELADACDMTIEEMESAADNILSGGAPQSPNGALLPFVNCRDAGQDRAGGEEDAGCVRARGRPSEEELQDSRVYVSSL
T4 sequence (Q08289 1-605 isoform Q08289-2 partner): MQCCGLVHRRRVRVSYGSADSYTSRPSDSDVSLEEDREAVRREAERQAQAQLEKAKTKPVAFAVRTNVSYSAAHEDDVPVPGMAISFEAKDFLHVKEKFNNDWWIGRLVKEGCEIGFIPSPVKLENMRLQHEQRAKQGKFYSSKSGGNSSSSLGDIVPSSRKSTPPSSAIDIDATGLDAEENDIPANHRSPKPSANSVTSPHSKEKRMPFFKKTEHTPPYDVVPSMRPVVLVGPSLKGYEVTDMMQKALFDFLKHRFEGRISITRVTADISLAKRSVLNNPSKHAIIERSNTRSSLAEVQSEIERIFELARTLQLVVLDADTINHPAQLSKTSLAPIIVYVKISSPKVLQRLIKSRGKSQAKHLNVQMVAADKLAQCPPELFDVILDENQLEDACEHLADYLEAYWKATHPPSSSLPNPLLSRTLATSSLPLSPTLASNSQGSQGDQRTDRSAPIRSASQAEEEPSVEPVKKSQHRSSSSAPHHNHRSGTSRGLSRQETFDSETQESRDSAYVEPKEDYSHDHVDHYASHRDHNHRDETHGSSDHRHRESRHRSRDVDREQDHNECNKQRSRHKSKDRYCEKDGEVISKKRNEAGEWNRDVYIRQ
T4 sequence (P54289 25-956 partner limits assumed): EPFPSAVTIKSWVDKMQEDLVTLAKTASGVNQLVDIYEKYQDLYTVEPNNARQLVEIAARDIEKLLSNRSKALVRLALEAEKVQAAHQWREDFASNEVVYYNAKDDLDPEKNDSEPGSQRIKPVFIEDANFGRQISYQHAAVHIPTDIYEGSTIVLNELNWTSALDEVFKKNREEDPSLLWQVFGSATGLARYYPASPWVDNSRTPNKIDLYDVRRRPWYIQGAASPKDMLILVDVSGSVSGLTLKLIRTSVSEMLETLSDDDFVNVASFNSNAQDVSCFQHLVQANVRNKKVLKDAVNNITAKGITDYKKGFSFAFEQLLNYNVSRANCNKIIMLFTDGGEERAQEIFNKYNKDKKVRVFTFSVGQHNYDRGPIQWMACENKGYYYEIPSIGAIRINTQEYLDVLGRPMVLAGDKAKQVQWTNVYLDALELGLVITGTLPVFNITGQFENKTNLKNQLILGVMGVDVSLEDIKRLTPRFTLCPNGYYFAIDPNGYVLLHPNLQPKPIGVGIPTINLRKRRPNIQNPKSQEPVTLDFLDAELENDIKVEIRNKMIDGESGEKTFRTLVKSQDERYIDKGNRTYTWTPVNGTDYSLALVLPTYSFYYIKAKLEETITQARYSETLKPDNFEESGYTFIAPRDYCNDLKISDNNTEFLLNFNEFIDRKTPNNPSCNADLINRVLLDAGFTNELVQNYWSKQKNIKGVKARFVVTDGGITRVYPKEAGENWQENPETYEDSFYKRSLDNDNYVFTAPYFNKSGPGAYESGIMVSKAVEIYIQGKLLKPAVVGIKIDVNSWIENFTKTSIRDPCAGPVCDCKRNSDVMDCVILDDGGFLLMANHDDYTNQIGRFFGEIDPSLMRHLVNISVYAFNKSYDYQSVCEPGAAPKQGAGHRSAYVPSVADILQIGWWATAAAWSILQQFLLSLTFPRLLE
T4 sequence (P54289 957-1103 partner limits assumed): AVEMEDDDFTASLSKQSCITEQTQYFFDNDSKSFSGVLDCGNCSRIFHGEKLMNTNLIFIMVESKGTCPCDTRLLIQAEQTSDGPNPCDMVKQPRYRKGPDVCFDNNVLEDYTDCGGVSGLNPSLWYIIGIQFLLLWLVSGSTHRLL
T3 sequence (Q12809 whole entry): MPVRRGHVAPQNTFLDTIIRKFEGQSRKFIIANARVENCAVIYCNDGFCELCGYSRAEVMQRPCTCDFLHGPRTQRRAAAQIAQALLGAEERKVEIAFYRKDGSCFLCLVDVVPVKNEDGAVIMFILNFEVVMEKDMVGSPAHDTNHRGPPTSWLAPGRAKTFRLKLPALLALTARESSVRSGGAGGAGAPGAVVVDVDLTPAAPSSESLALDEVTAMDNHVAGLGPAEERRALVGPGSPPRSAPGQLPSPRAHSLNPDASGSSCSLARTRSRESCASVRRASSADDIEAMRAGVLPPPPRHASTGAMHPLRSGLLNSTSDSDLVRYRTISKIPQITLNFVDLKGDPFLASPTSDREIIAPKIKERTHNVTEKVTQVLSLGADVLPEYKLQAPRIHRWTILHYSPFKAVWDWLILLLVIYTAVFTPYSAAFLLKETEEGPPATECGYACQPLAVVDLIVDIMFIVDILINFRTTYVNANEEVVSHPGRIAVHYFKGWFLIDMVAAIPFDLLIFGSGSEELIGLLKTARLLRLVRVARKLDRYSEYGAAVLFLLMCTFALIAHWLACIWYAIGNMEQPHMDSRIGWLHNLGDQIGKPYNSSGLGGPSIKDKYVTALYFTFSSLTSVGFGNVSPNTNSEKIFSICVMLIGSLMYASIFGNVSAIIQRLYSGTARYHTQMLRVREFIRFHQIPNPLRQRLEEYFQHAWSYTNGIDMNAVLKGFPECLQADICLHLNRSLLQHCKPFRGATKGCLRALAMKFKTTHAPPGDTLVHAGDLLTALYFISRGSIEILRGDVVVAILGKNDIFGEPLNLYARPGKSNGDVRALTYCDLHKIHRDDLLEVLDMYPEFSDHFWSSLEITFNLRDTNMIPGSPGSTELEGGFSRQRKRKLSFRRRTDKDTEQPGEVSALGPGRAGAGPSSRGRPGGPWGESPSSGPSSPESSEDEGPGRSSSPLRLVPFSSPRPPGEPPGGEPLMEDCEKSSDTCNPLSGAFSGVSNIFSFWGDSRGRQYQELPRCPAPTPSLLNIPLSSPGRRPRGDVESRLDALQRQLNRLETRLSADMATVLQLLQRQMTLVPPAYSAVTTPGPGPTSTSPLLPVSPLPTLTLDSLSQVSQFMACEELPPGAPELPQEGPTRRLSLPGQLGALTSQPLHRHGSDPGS

Row | SMILES | Estimated IC50 [1] | Estimated IC50 [2] | Estimated IC50 [3] | Estimated IC50 [4]
1 | CN[C@@H](C)C(=O)c1ccc2c(c1)OCO2 [(S)-methylone] | N/C (N/C indicates observed mean inhibition was <25%) | N/C (N/C indicates observed mean inhibition was <25%) | N/C (N/C indicates observed mean inhibition was <25%) | N/C (N/C indicates observed mean inhibition was <25%)
2 | CNC(C)C(=O)c1ccc2c(c1)OCO2 (centres unmarked) [Methylone HCl, methylone HCl] | N/C (N/C indicates observed mean inhibition was <25%) | N/C (N/C indicates observed mean inhibition was <25%) |  | N/C (N/C indicates observed mean inhibition was <25%)
3 | CN[C@H](C)C(=O)c1ccc2c(c1)OCO2 [(R)-methylone] | N/C (N/C indicates observed mean inhibition was <25%) | N/C (N/C indicates observed mean inhibition was <25%) | N/C (N/C indicates observed mean inhibition was <25%) | N/C (N/C indicates observed mean inhibition was <25%)

Reference: US20240374558A1, “PREPARATION OF PHENE[…] […] STEREOISOMERS THEREOF AND PRECURSORS THEREOF” (priority 2022, published 2024)
